Test systems include RPMI-8226 leukemia; RXF 393 renal; COLO 205 colon; SK-MEL-5 melanoma; SK-OV-3 ovarian; K-562 leukemia; CAKI-1 renal; HOP-62 NSCLC; MCF7 breast; MDA-MB-231 breast.
What all share (experiment): NCI anticancer screen, dose series, 48 h

Structures are written as SMILES. Where “and” joins values, the source holds several entries; their conditions need not be identical. Equal values may be shown once.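 The compound was tested at five concentrations on cells cultured in 96-well plates, with a 48-hour exposure period. At the GI50, growth is halved. At the TGI there is no net growth.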

Regarding `COC(=O)Cc1cc(=O)n2c([nH]c3ccccc32)c1C#N`, the TGI in the test on RPMI-8226 leukemia, with RXF 393 renal, with COLO 205 colon, in the test on SK-MEL-5 melanoma, with SK-OV-3 ovarian and in the test with K-562 leukemia was above 100 µM throughout. The TGI with CAKI-1 renal and with HOP-62 NSCLC was above 100 µM throughout.
For the compound `CCCCCCCCCCCCC(CCCCCCCCCCCC)OP(=O)(O)O`, the TGI with RPMI-8226 leukemia, with RXF 393 renal, in the test on COLO 205 colon, with SK-MEL-5 melanoma, in the test on SK-OV-3 ovarian and with K-562 leukemia was above 100 µM throughout. In addition, the TGI in the test on CAKI-1 renal and in the test with HOP-62 NSCLC was above 100 µM each time.
Take `C/C=C/C1=CN2C(=O)c3cc(OC4OC(C)C(NC)C(C)(O)C4O)c(C)c(O)c3N=C[C@@H]2C1` (some centres not stated): the GI50 is 0.0457 µM and < 0.01 µM with RPMI-8226 leukemia; 0.0431 µM and < 0.01 µM in the test with K-562 leukemia; 0.0279 µM and < 0.01 µM in the test on CAKI-1 renal. In addition, the values for the TGI in the test on MCF7 breast, in the test with SK-OV-3 ovarian and in the test with K-562 leukemia were 13.4 µM, 12.4 µM and above 100 µM, respectively.
For `Cc1ccc(NC(=O)CC2C(=O)Nc3ccccc3S2=O)c(C)c1` (configuration not stated), the TGI with RPMI-8226 leukemia was 44.8 µM; with RXF 393 renal, 24.1 µM; in the test with COLO 205 colon it was 60.5 µM; in the test on SK-MEL-5 melanoma, 38.1 µM; in the test with SK-OV-3 ovarian, 33.9 µM; with K-562 leukemia it was above 87.1 µM. In addition, the TGI was above 48.4 µM with CAKI-1 renal and 38.1 µM in the test on HOP-62 NSCLC.
Take `O=C(NCCCCCCNC(=O)OCc1ccc2c(Cl)cc(Cl)c(O)c2n1)OCc1ccc2c(Cl)cc(Cl)c(O)c2n1`: the GI50 is 0.311 µM in the test with RPMI-8226 leukemia; 0.478 µM with RXF 393 renal; 0.589 µM in the test on COLO 205 colon; 1.54 µM in the test on SK-MEL-5 melanoma; 5.5 µM with SK-OV-3 ovarian; 0.381 µM with K-562 leukemia. Also, the figures for the GI50 in the test on CAKI-1 renal, with HOP-62 NSCLC and with MDA-MB-231 breast were 0.412 µM, 1.7 µM and 1.17 µM, respectively. Further, the TGI in the test on RPMI-8226 leukemia came to 1.68 µM; in the test on RXF 393 renal it was 1.57 µM; in the test with COLO 205 colon, 2.19 µM; with SK-MEL-5 melanoma, 2.88 µM; in the test on SK-OV-3 ovarian, 17.9 µM; in the test on CAKI-1 renal it was 1.69 µM. Also, the figures for the TGI in the test with HOP-62 NSCLC and in the test with MDA-MB-231 breast were 4.22 µM and 2.49 µM, respectively.
As to `CC1=Nc2ccccc2C12C(c1ccccc1)C(c1ccccc1)C(=O)N1c3ccccc3CC12` (configuration not stated), the TGI in the test with RPMI-8226 leukemia, with RXF 393 renal, with COLO 205 colon, in the test with SK-MEL-5 melanoma, in the test with SK-OV-3 ovarian and with K-562 leukemia was above 100 µM each time. Besides, the TGI with CAKI-1 renal and with HOP-62 NSCLC was above 100 µM in each case.
On to `CC(C)c1cccc(C(C)C)c1NC(=O)CCC(=O)NN`, for which the TGI is above 100 µM in the test on RPMI-8226 leukemia; 36.1 µM with COLO 205 colon; above 100 µM with SK-MEL-5 melanoma; above 100 µM with SK-OV-3 ovarian; above 100 µM in the test with K-562 leukemia; above 100 µM in the test on CAKI-1 renal. The TGI with HOP-62 NSCLC was above 100 µM.
Regarding `COC(=O)[C@@]12C=CC(=O)[C@H]3C[C@@H](C(C(C)C)C1)[C@]32OC` (some centres not stated), the TGI in the test on RPMI-8226 leukemia, in the test on RXF 393 renal, with COLO 205 colon, in the test on SK-MEL-5 melanoma, in the test on SK-OV-3 ovarian and in the test with K-562 leukemia was above 100 µM in each case. Also, the TGI in the test with CAKI-1 renal and in the test on HOP-62 NSCLC was above 100 µM each time.
As for `COc1ccc(C2C3=C(COC3=O)Oc3cc4c(cc32)OCO4)cc1` (configuration not stated), the TGI in the test with RPMI-8226 leukemia is above 100 µM; in the test with RXF 393 renal, above 100 µM; in the test on COLO 205 colon it was 63.6 µM; in the test with SK-MEL-5 melanoma, above 100 µM; in the test on SK-OV-3 ovarian it was above 100 µM; in the test with K-562 leukemia, above 100 µM. For the same compound, the TGI in the test with CAKI-1 renal was above 100 µM; with HOP-62 NSCLC, 51.7 µM.
As to `Cn1nc2ccccc2cc1=O`, the TGI in the test with RPMI-8226 leukemia, in the test with COLO 205 colon, in the test on SK-MEL-5 melanoma, in the test on SK-OV-3 ovarian, in the test on K-562 leukemia and with CAKI-1 renal was above 100 µM each time. The compound also came in with a TGI in the test with HOP-62 NSCLC above 100 µM.
Take `COC(C)(C)[C@H](O)C(O)CC(C)[C@@H]1CCC23CC12CCC1[C@@]2(C)CCC(OC(C)=O)C(C)(C)C2CC(OC2OC(COC(C)=O)C(O)C(O)C2O)[C@]13C` (some centres not stated): the GI50 is 3.77 µM in the test with RPMI-8226 leukemia; 2.17 µM in the test with COLO 205 colon; 10.2 µM with SK-MEL-5 melanoma; 7.76 µM in the test with SK-OV-3 ovarian; 4.68 µM with K-562 leukemia; 8.27 µM in the test with CAKI-1 renal. In addition, the TGI with RPMI-8226 leukemia is 6.54 µM and 17.1 µM; in the test on RXF 393 renal, 11.8 µM; in the test with COLO 205 colon it was 11.3 µM and 4.58 µM; with SK-MEL-5 melanoma it was 12.8 µM and 23.3 µM; with SK-OV-3 ovarian, 17.7 µM and 20.4 µM; in the test with K-562 leukemia, 10.6 µM and 21.4 µM. The TGI with CAKI-1 renal is 10.2 µM and 20.2 µM; with HOP-62 NSCLC, 17.2 µM and 23.9 µM.
With `c1ccc2c(CNCCCCCCCCCCCCNCc3cccc4ccccc34)cccc2c1`, the TGI with RPMI-8226 leukemia is 2.55 µM; in the test on RXF 393 renal, 2.66 µM; in the test with COLO 205 colon it was above 100 µM; with SK-MEL-5 melanoma it was 3.27 µM; in the test with SK-OV-3 ovarian it was 26.5 µM; with K-562 leukemia, 2.11 µM. Besides, the results for the TGI with CAKI-1 renal and with HOP-62 NSCLC were 4.27 µM and 4.56 µM, respectively.
Consider `c1ccc2c(c1)[nH]c1c2ncc2[nH]c3ccccc3c21`, for which the TGI came out at 6.27 µM in the test with RPMI-8226 leukemia; 6.83 µM with COLO 205 colon; 17.2 µM with SK-MEL-5 melanoma; 28.7 µM in the test with SK-OV-3 ovarian; 8.3 µM in the test on K-562 leukemia; 13.7 µM with CAKI-1 renal. The compound further gave a TGI with HOP-62 NSCLC of 19.4 µM.
As for `O=C(C=Nc1ccccc1C(=O)[O-])c1cccs1.O=C(C=Nc1ccccc1C(=O)[O-])c1cccs1.[Zn+2]`, the TGI with COLO 205 colon is above 100 µM; in the test with SK-OV-3 ovarian it was 37.9 µM; in the test on K-562 leukemia it was 88 µM; in the test on CAKI-1 renal it was above 100 µM; in the test on HOP-62 NSCLC, above 100 µM.
On to `FC(F)(F)c1nc(-c2ccccc2)oc1Sc1oc(-c2ccccc2)nc1C(F)(F)F`, for which the TGI in the test on RPMI-8226 leukemia, in the test with RXF 393 renal, in the test on COLO 205 colon, with SK-MEL-5 melanoma, with SK-OV-3 ovarian and with K-562 leukemia was above 100 µM throughout. Besides, the figures for the TGI in the test on CAKI-1 renal and in the test on HOP-62 NSCLC were 65.7 µM and above 100 µM, respectively.

The record behind these values is PubChem BioAssay (NCI).
